Each structure is given as a SMILES string.

For this experiment, the system named is diabetic GK rats. In words: Erectile response to electrical stimulation of the cavernous nerve (ICP monitoring) in a rat model of type II diabetes mellitus associated erectile dysfunction with impaired sildenafil response. The experiment is classed as in vivo, Goto-Kakizaki (GK) rats. On the procedure:
The efficacy of compounds of Formula (I) for restoring or increasing responsiveness to treatment with a PDE5 inhibitor (sildenafil) is assessed in a rat model of type II diabetes mellitus associated erectile dysfunction in Goto-Kakizaki (GK) rats. Those rats show the main features of the metabolic, hormonal and vascular disorders usually described in T2D patients (Portha et al., 2001, Diabetes 50 (Suppl. 1): S89-S93; Portha et al., 1991, Diabetes 40, 486-491).
Adult male Wistar and age-matched Goto-Kakizaki (GK) rats (obtained by repeated inbreeding of non-diabetic Wistar rats selected at the upper limit or normal distribution if glucose tolerance as described in Goto et al., 1975, Proc. Jpn Acad, 51, 80-5 are housed at least 7 days prior to the beginning of the experiments with free access to standard chow and water and maintained on an inversed 12 h dark/light cycle (10:00/22:00).
At 15 weeks of age, treatment period is started; n=24 GK rats (Groups 4 & 5) receive a dose of compound 5 (30 mg/kg) while n=24 GK (Groups 1 and 3) rats and n=12 Wistar (Group 2) rats receive an equivalent volume of vehicle (25% HPβCD) of compound 5 by daily oral gavage for 28 days.
On day 29th after starting treatment administration, the rats (19 weeks of age) undergo an evaluation of their erectile response measured after electrical stimulation (ES) of the cavernous nerve (CN) by monitoring intracavernous pressure (ICP). For this purpose, rats are anesthetized (urethane […]) after a 3-hour fasting period (necessary for plasma glucose dosage), their temperature maintained at 37°C using a homeothermic blanket. The carotid artery was catheterized to record blood pressure (BP) via a pressure transducer (Elcomatic 750, Glasgow, UK). Both jugular veins were also catheterised to allow intravenous injections. CN is surgically exposed at the lateral aspect of the prostate and mounted on a bipolar platinum electrode connected to an electrical stimulator (AMS 2100, Phymep, France).
As a consequence, there are 16 hours between animals receiving their final administration of compound 5 or vehicle and initiation of evaluation of their erectile function. Rats were anesthetized and then received a 1st intravenous injection (iv) 25%HPβCD, the vehicle of compound 5, 60 minutes prior to the evaluation period of treatment effect. All rats also received a 2nd iv injection of either sildenafil (Sequoia research, Pangbourne, UK) 0.3mg/kg (groups 3 & 5) or normal saline, the vehicle of sildenafil, (groups 1, 2, 4) 56 minutes after the first injection.
At T=-15 minutes, the continuous recording of BP and ICP started. […] Two stimulations of the CN at 15Hz, 1 ms for 45 s were performed to elicit an increase of ICP to certify the correct implantation of the catheter and to assess baseline erectile response prior treatment
At T=0 minute, 25% HPβCD was injected intravenously.
At T+4 minutes and T+30 minutes, the CN was stimulated at 10Hz, 1ms for 45s.At T+56 minutes, sildenafil (0.3mg/kg) or normal saline was intravenously injected.
At T+ 60 minutes, and at 3 minutes intervals thereafter, the CN was stimulated at 6V, 1 ms for 45 s by different stimulation frequencies (10 Hz then 0, 2.5, 5, 7.5, 12.5 and 15 Hz) in a randomized manner in order to assess the erectile responses. These different electrical stimulations were repeated twice in view of establishing a frequency-response curve for each animal.
At T+ 120 minutes, the recording ended. […]

As for `CN(C)c1cccc(-c2c3c(=O)n(-c4ccccc4Cl)[nH]c3cc(=O)n2C)c1` [compound 5, 2-(2-chlorophenyl)-4-[3-(dimethylamino)phenyl]-5-methyl-1H-pyrazolo[4,3-c] pyridine-3,6(2H,5H)-dione], for the setting “acute sildenafil 0.3 mg/kg combined with chronic compound 5 30mg/kg/day, Figure 1B”, the “AUCtot/MAP following ES CN compared to control healthy Wistar rats” value is given as “not significantly different”. The “AUCtot/MAP (pro-erectile facilitator effects)” value (chronic compound 5 30mg/kg/day combined with acute sildenafil iv 0.3mg/kg, p≤0.0001 vs. GK rats, 2-way ANOVA with interaction, figure 1B) is listed as “further increased”. Also, the “AUC45/MAP (pro-erectile facilitator effects)” value (chronic compound 5 30mg/kg/day combined with acute sildenafil iv 0.3mg/kg, p≤0.0001 vs. GK rats, 2-way ANOVA, Figure 1A) is reported as “further increased”. In addition, the “erectile responses (AUC45/MAP) compared to healthy Wistar rats” value (chronic compound 5 alone at 30mg/kg/day, Figure 1A) is recorded as “significantly lower”. For the same molecule, under “combination of chronic compound 5 30mg/kg/day and acute sildenafil 0.3mg/kg, p≤0.0001 vs acute sildenafil, p≤0.05 vs chronic compound 5, Figure 1B”, the “increase in AUCtot/MAP compared to each compound administered alone” value was “statistically significant”. For the same molecule, the “AUCtot/MAP (erectile responses to ES CN)” value (compound 5 alone, 30mg/kg once daily oral for 4 weeks, compared to GK rats treated with vehicle, p=0.147, figure 1B) is listed as “no statistical difference”. Besides, under “compound 5 alone, 30mg/kg once daily oral for 4 weeks, compared to GK rats treated with vehicle, p≤0.05, figure 1A”, the “AUC45/MAP (erectile responses to ES CN)” value is given as “statistically greater overall erectile responses”.

For the molecule `CCCc1nn(C)c2c(=O)[nH]c(-c3cc(S(=O)(=O)N4CCN(C)CC4)ccc3OCC)nc12` [sildenafil, reference compound], the “erectile responses (AUC45/MAP) compared to healthy Wistar rats” value (acute sildenafil alone, iv single administration 0.3mg/kg, Figure 1A) is listed as “significantly lower”. Moreover, the “erectile responses to ES CN” value (acute sildenafil alone, iv single administration at 0.3mg/kg) was “pro-erectile facilitator effects”.

The record behind these values is EP2857399A1, “Compounds useful for the treatment of PDE5 inhibitor-poorly responsive erectile dysfunction” (GenKyoTex SA, priority 2013, dated 2015).
